Source: ChEMBL document CHEMBL1201862, “PubChem BioAssay data set” (2004)
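How tested: cells in 96-well plates exposed to compound for 48 hours at five concentrations. Here, GI50 denotes the concentration required for 50% inhibition of growth.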 Calls of active or inactive are those of the source. No stated cut-off is given here; in the data, active = GI50 up to about 1.1 µM and inactive = higher.

Key:
Experiment in all cases: growth of human tumour cells (NCI), 48 h
[1] = test system: 786-0
[2] = test system: A498
[3] = test system: A549
[4] = test system: ACHN
[5] = test system: BT-549
[6] = test system: CAKI-1
[7] = test system: CCRF-CEM
[8] = test system: COLO 205
[9] = test system: DU-145
[10] = test system: EKVX
[11] = test system: HCC 2998
[12] = test system: HCT-116
[13] = test system: HCT-15
[14] = test system: HL-60
[15] = test system: HOP-62
[16] = test system: HOP-92
[17] = test system: HT-29
[18] = test system: Hs-578T
[19] = test system: IGROV-1
[20] = test system: K562
[21] = test system: KM12
[22] = test system: M14
[23] = test system: MCF7
[24] = test system: MDA-MB-231
[25] = test system: MDA-MB-435
[26] = test system: MDA-N
[27] = test system: MOLT-4
[28] = test system: Malme-3M
[29] = test system: NCI-H226
[30] = test system: NCI-H23
[31] = test system: NCI-H460
[32] = test system: NCI-H522
[33] = test system: NCI/ADR-RES
[34] = test system: OVCAR-3
[35] = test system: OVCAR-4
[36] = test system: OVCAR-5
[37] = test system: OVCAR-8
[38] = test system: PC-3
[39] = test system: RPMI-8226
[40] = test system: RXF 393
[41] = test system: SF-268
[42] = test system: SF-295
[43] = test system: SF-539
[44] = test system: SK-MEL-28
[45] = test system: SK-MEL-2
[46] = test system: SK-MEL-5
[47] = test system: SK-OV-3
[48] = test system: SN12C
[49] = test system: SNB-19
[50] = test system: SNB-75
[51] = test system: SR
[52] = test system: SW-620
[53] = test system: T47D
[54] = test system: TK-10
[55] = test system: U-251
[56] = test system: UACC-257
[57] = test system: UACC-62
[58] = test system: UO-31

`COC1Cc2c(C)c(OC(C)=O)c3cccnc3c2O1` (stereo not drawn) was tested, and the GI50 [1] was 18.2 µM (inactive), the GI50 [2] was > 100 µM (inactive) and the GI50 [3] was 17.3 µM (inactive). For the same compound, the GI50 [4] was 7.11 µM (inactive), the GI50 [5] was 19.7 µM (inactive) and the GI50 [6] was > 100 µM (inactive). For the same compound, the GI50 [7] was 10.7 µM (inactive), the GI50 [8] was 91.8 µM (inactive) and the GI50 [9] was 17.3 µM (inactive). For the same compound, the GI50 [10] was 15.4 µM (inactive), the GI50 [11] was > 100 µM (inactive) and the GI50 [12] was 34.9 µM (inactive). For the same compound, the GI50 [13] was 10.4 µM, the GI50 [14] was 6.79 µM (inactive) and the GI50 [15] was 25.1 µM (inactive). For the same compound, the GI50 [16] was 18.6 µM (inactive), the GI50 [17] was 43.8 µM (inactive) and the GI50 [18] was 30.3 µM (inactive). For the same compound, the GI50 [19] was 13.3 µM (inactive), the GI50 [20] was 22.2 µM (inactive) and the GI50 [21] was 36.6 µM (inactive). The GI50 [22] was 14.5 µM (inactive), the GI50 [23] was 18.9 µM (inactive) and the GI50 [24] was > 100 µM (inactive). The GI50 [25] was 17.6 µM (inactive), the GI50 [26] was 20.8 µM (inactive) and the GI50 [27] was 13.8 µM (inactive). For the same compound, the GI50 [28] was 13.8 µM (inactive), the GI50 [29] was 39 µM (inactive) and the GI50 [30] was 20.6 µM (inactive). For the same compound, the GI50 [31] was 25.4 µM (inactive), the GI50 [32] was 2.75 µM (inactive) and the GI50 [33] was 17.6 µM (inactive). The GI50 [34] was 14.5 µM (inactive), the GI50 [35] was 16 µM (inactive) and the GI50 [36] was 18.2 µM (inactive). The GI50 [37] was 15.1 µM (inactive), the GI50 [38] was 36.7 µM (inactive) and the GI50 [39] was 28.6 µM (inactive). For the same compound, the GI50 [40] was 14.9 µM (inactive), the GI50 [41] was 16 µM (inactive) and the GI50 [42] was 32.4 µM (inactive). The GI50 [43] was 48.2 µM (inactive), the GI50 [44] was 24.7 µM (inactive) and the GI50 [45] was 13.9 µM (inactive). For the same compound, the GI50 [46] was 15.3 µM (inactive), the GI50 [47] was 26.9 µM (inactive) and the GI50 [48] was 18.5 µM (inactive). The GI50 [49] was > 100 µM (inactive), the GI50 [50] was 17.4 µM (inactive) and the GI50 [51] was 15.6 µM (inactive). For the same compound, the GI50 [52] was 13.5 µM (inactive), the GI50 [53] was 24.1 µM (inactive) and the GI50 [54] was > 100 µM (inactive). The GI50 [55] was 37.2 µM (inactive), the GI50 [56] was 16 µM (inactive) and the GI50 [57] was 14.7 µM (inactive). For the same compound, the GI50 [58] was 13.9 µM (inactive).
